Results: BindingDB's records for doi:10.1080/14756360109162375 (University of North Carolina, 2001)

These molecules were tested against T1, N(4)-(beta-N-acetylglucosaminyl)-L-asparaginase (Homo sapiens, UniProt P20933) (assay: Inhibition Assay). Conditions: pH 5.8; 37 °C.
T1 sequence (P20933 whole entry): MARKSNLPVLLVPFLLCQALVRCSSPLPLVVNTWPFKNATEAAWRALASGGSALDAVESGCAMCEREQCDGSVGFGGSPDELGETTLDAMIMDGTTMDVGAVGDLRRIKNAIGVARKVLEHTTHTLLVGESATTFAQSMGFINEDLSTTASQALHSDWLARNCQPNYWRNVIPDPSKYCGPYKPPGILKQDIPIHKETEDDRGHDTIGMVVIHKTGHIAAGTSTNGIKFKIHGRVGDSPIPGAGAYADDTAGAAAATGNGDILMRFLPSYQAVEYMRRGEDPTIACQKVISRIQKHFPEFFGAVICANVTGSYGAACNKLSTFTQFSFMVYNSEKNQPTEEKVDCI
Procedure: Glycosylasparaginase activity was measured in citrate-phosphate buffer at pH 5.8 at 37 C. N-Acetyl-D-glucosamine released during the reaction was measured using the Morgan-Elson assay.

Ki [µM]	Compound
700	CC(CC(=O)O)C(=O)O [D,L-2-Methylsuccinic acid, 5]
750	CC(=O)NC1C(NC(=O)CN)OC(CO)C(O)C1O (stereo not given) [GlcNAc-Asn analogue, 10]
640	CC(=O)NC1C(NC(=O)CCl)OC(CO)C(O)C1O (stereo not given) [GlcNAc-Asn analogue, 11]
560	CC(=O)NC1C(NC(=O)CBr)OC(CO)C(O)C1O (stereo not given) [GlcNAc-Asn analogue, 12]
600	N[C@@H](CC(=O)O)C(=O)O [L-Aspartic acid, 2]
1400	N[C@H](CS(=O)(=O)O)C(=O)O [L-cysteic acid]
5000	O=C(O)CCC(=O)O [Succinic acid, 6]

Compound	Ki [µM]
N[C@H](CP(=O)(O)O)C(=O)O [CAS_23052-80-4]	900
O=C(O)CC(Cl)C(=O)O [L-2-Chlorosuccinic acid, 3]	7700
O=C(O)CC(Br)C(=O)O [L-2-bromosuccinic acid, 4]	2700
